Data as given in US20140155580A1, “TRANSGENIC AVES PRODUCING HUMAN POLYCLONAL ANTIBODIES” (Synageva BioPharma Corp., priority 2003, published 2014).

Tested on: chicken embryonic stem cells
Assay: Titration kill curve: cES cells in culture exposed to puromycin or neomycin
Assay type: cell-based
Parameters: key to Morphology of cES cells: ES: ES cells are present.; diff: ES cells are differentiated.; gone: no morphologically recognizable cells are present
Description: In a preferred embodiment, the concentration of puromycin required for selecting transfected cells is calculated as a titration kill curve. Titration kill curves for chicken embryonic stem cells are established by exposing cells in culture to puromycin concentrations varying from 0.0 to 1.0 μg/ml for 10 days (Table 7) and neomycin concentrations varying from 0.0 to 200 μg/ml (Table 8). The medium is changed every 2 days and fresh puromycin or neomycin is added. […] Puromycin concentrations of 0.3-1.0 μg/ml are used for selection of the transfected cultures. Neomycin concentrations over 40 μg/ml eliminated all cES cells within 7 days (Table 8).

COc1ccc(C[C@H](N)C(=O)N[C@H]2[C@@H](O)[C@H](n3cnc4c(N(C)C)ncnc43)O[C@@H]2CO)cc1 [Puromycin, puromycin]
ES: Morphology of cES cells (puromycin 0.1 μg/ml, day 1 under selection) | Morphology of cES cells (puromycin 0.1 μg/ml, day 2 under selection) | Morphology of cES cells (puromycin 0.1 μg/ml, day 3 under selection) | Morphology of cES cells (puromycin 0.1 μg/ml, day 4 under selection) | Morphology of cES cells (puromycin 0.1 μg/ml, day 5 under selection) | Morphology of cES cells (puromycin 0.1 μg/ml, day 6 under selection) | Morphology of cES cells (puromycin 0.1 μg/ml, day 7 under selection) | Morphology of cES cells (puromycin 0.1 μg/ml, day 8 under selection) | Morphology of cES cells (puromycin 0.1 μg/ml, day 9 under selection) | Morphology of cES cells (puromycin 0.1 μg/ml, day 10 under selection) | Morphology of cES cells (puromycin 0.2 μg/ml, day 1 under selection) | Morphology of cES cells (puromycin 0.2 μg/ml, day 2 under selection) | Morphology of cES cells (puromycin 0.2 μg/ml, day 3 under selection) | Morphology of cES cells (puromycin 0.2 μg/ml, day 4 under selection) | Morphology of cES cells (puromycin 0.2 μg/ml, day 5 under selection) | Morphology of cES cells (puromycin 0.2 μg/ml, day 6 under selection) | Morphology of cES cells (puromycin 0.2 μg/ml, day 7 under selection) | Morphology of cES cells (puromycin 0.2 μg/ml, day 8 under selection) | Morphology of cES cells (puromycin 0.2 μg/ml, day 9 under selection) | Morphology of cES cells (puromycin 0.2 μg/ml, day 10 under selection) | Morphology of cES cells (puromycin 0.25 μg/ml, day 1 under selection) | Morphology of cES cells (puromycin 0.25 μg/ml, day 2 under selection) | Morphology of cES cells (puromycin 0.25 μg/ml, day 3 under selection) | Morphology of cES cells (puromycin 0.25 μg/ml, day 4 under selection) | Morphology of cES cells (puromycin 0.25 μg/ml, day 5 under selection) | Morphology of cES cells (puromycin 0.3 μg/ml, day 1 under selection) | Morphology of cES cells (puromycin 0.3 μg/ml, day 2 under selection) | Morphology of cES cells (puromycin 0.4 μg/ml, day 1 under selection)
absent from all wells: Presence of ES cells in wells after exposure (0.3 μg/ml puromycin, 3 changes of medium with fresh puromycin over a six day period)
diff: Morphology of cES cells (puromycin 0.25 μg/ml, day 6 under selection) | Morphology of cES cells (puromycin 0.25 μg/ml, day 7 under selection) | Morphology of cES cells (puromycin 0.3 μg/ml, day 3 under selection) | Morphology of cES cells (puromycin 0.4 μg/ml, day 2 under selection) | Morphology of cES cells (puromycin 0.5 μg/ml, day 1 under selection) | Morphology of cES cells (puromycin 0.6 μg/ml, day 1 under selection) | Morphology of cES cells (puromycin 0.7 μg/ml, day 1 under selection)
gone: Morphology of cES cells (puromycin 0.3 μg/ml, day 6 under selection) | Morphology of cES cells (puromycin 0.3 μg/ml, day 7 under selection) | Morphology of cES cells (puromycin 0.3 μg/ml, day 8 under selection) | Morphology of cES cells (puromycin 0.3 μg/ml, day 9 under selection) | Morphology of cES cells (puromycin 0.3 μg/ml, day 10 under selection) | Morphology of cES cells (puromycin 0.4 μg/ml, day 3 under selection) | Morphology of cES cells (puromycin 0.4 μg/ml, day 4 under selection) | Morphology of cES cells (puromycin 0.4 μg/ml, day 5 under selection) | Morphology of cES cells (puromycin 0.4 μg/ml, day 6 under selection) | Morphology of cES cells (puromycin 0.4 μg/ml, day 7 under selection) | Morphology of cES cells (puromycin 0.4 μg/ml, day 8 under selection) | Morphology of cES cells (puromycin 0.4 μg/ml, day 9 under selection) | Morphology of cES cells (puromycin 0.4 μg/ml, day 10 under selection) | Morphology of cES cells (puromycin 0.5 μg/ml, day 2 under selection) | Morphology of cES cells (puromycin 0.5 μg/ml, day 3 under selection) | Morphology of cES cells (puromycin 0.5 μg/ml, day 4 under selection) | Morphology of cES cells (puromycin 0.5 μg/ml, day 5 under selection) | Morphology of cES cells (puromycin 0.5 μg/ml, day 6 under selection) | Morphology of cES cells (puromycin 0.5 μg/ml, day 7 under selection) | Morphology of cES cells (puromycin 0.5 μg/ml, day 8 under selection) | Morphology of cES cells (puromycin 0.5 μg/ml, day 9 under selection) | Morphology of cES cells (puromycin 0.5 μg/ml, day 10 under selection) | Morphology of cES cells (puromycin 0.6 μg/ml, day 2 under selection) | Morphology of cES cells (puromycin 0.6 μg/ml, day 3 under selection) | Morphology of cES cells (puromycin 0.6 μg/ml, day 4 under selection) | Morphology of cES cells (puromycin 0.6 μg/ml, day 5 under selection) | Morphology of cES cells (puromycin 0.6 μg/ml, day 6 under selection) | Morphology of cES cells (puromycin 0.6 μg/ml, day 7 under selection) | Morphology of cES cells (puromycin 0.6 μg/ml, day 8 under selection) | Morphology of cES cells (puromycin 0.6 μg/ml, day 9 under selection) | Morphology of cES cells (puromycin 0.6 μg/ml, day 10 under selection) | Morphology of cES cells (puromycin 0.7 μg/ml, day 2 under selection) | Morphology of cES cells (puromycin 0.7 μg/ml, day 3 under selection) | Morphology of cES cells (puromycin 0.7 μg/ml, day 4 under selection) | Morphology of cES cells (puromycin 0.7 μg/ml, day 5 under selection) | Morphology of cES cells (puromycin 0.7 μg/ml, day 6 under selection) | Morphology of cES cells (puromycin 0.7 μg/ml, day 7 under selection) | Morphology of cES cells (puromycin 0.7 μg/ml, day 8 under selection) | Morphology of cES cells (puromycin 0.7 μg/ml, day 9 under selection) | Morphology of cES cells (puromycin 0.7 μg/ml, day 10 under selection) | Morphology of cES cells (puromycin 0.8 μg/ml, day 1 under selection) | Morphology of cES cells (puromycin 0.8 μg/ml, day 2 under selection) | Morphology of cES cells (puromycin 0.8 μg/ml, day 3 under selection) | Morphology of cES cells (puromycin 0.8 μg/ml, day 4 under selection) | Morphology of cES cells (puromycin 0.8 μg/ml, day 5 under selection) | Morphology of cES cells (puromycin 0.8 μg/ml, day 6 under selection) | Morphology of cES cells (puromycin 0.8 μg/ml, day 7 under selection) | Morphology of cES cells (puromycin 0.8 μg/ml, day 8 under selection) | Morphology of cES cells (puromycin 0.8 μg/ml, day 9 under selection) | Morphology of cES cells (puromycin 0.8 μg/ml, day 10 under selection)
